{"source": "paper PMC2832019", "about": "“In Vitro Metabolic and Mitogenic Signaling of Insulin Glargine and Its Metabolites” (PLoS ONE, 2010)", "key": {"[1]": {"system": "MCF-7 cells, HCT-116 (colorectal cancer) and PC-3 (prostate cancer) cells", "conditions": "ref [49]; cited from earlier work", "from_the_text": "A correlation between IGF1R autophosphorylation and cell proliferation has been recently assumed by Shukla et al., who observed an enhanced growth of the malignant cell line MCF7 after insulin glargine stimulation. The authors have observed 10% and 50% increases of cellular proliferation at 0.31 and about 15 nmol/L. […] Unfortunately, no dose-response curve of IGF1R autophosphorylation as well as no proliferation data from siRNA knockdown of IR have ..."}, "[2]": {"target": "human IGF1R", "assay": "Competitive binding, IGF1R", "conditions": "[^125I]IGF-1 as radioactive ligand; means ± SEM, at least three times; read-out: IGF1R affinity IC50", "description": "(§1) Binding experiments were conducted in 96-well microplates. Per well 2 µg of membranes were incubated with 0.25 mg wheat germ agglutinin polyvinyltoluene polyethylenimine SPA beads, 100 pmol/L A14[^125I]-insulin and various concentrations of unlabeled insulins in a binding buffer containing 0.05 mol/L Tris-HCl pH 7.8, 0.15 mol/L NaCl, 0.1% BSA, Complete Protease Inhibitor for 12 hours at room temperature (23°C). The radioactivity was measured at equilibrium in a microplate scintillation counter (Wallac Microbeta, Freiburg, Germany).\n(§2) For each experiment, IC50 or EC50 values were obtained using the 4-parameter logistic model according to Ratkowsky and Reedy (1986). The adjustment was obtained by non-linear regression using the Levenberg-Marquardt algorithm in SAS v9.1.3 software via Biost@t-Speed V2.0-LTS internal application. If necessary, lower and upper asymptotes were set to 0 and 100, respectively.\nFigure 4 Activity of insulin analogs on the human IGF1R and mitogenic potential in Saos-2 cells. Analysis of binding to the human IGF1R using [^125I]IGF-1 as radioactive ligand (A) and analysis of the insulin-stimulated autophosphorylation of the human IGF1R overexpressed in MEF cells (B) were done as described in figure 2 and Materials and Methods. Data are given as means ± SEM. […] Confluent cells were starved for 4 h and then incubated for 19 h with increasing concentrations of IGF-1, insulin or analog in serum free medium. [^14C]thymidine was added for further 6 h and the radioactivity measured in a Wallac Micro Scintillation counter. Data are given as means ± SEM from octuplicate sample."}, "[3]": {"system": "human IR-A", "assay": "Competitive receptor binding (SPA), IR-A", "description": "(§3) The binding of the different insulins to the human IR-A and IR-B was analyzed in a competitive binding assay using the scintillation proximity assay as previously described, [30]. […] Briefly, cells were grown to confluence and gently detached, transferred to a centrifugation tube followed by centrifugation for 10 minutes at 600×g at 4°C. The pellet was resuspended in ice-cold 2.25 STM buffer (2.25 mol/L sucrose, 5 mmol/L Tris-HCl pH 7.4, 5 mmol/L MgCl2, 1x Complete Protease Inhibitor) and disrupted using a hand-held Dounce homogenizer followed by sonication. This homogenate was transferred to a centrifugation tube, overlaid with 0.8 STM buffer (0.8 mol/L sucrose, 5 mmol/L Tris-HCl pH 7.4, 5 mmol/L MgCl2, 1x Complete Protease Inhibitor) and centrifuged for 90 minutes at 100 000×g at 4°C. The emerging pellicle at the interface was collected, transferred to a new tube and washed two times with PBS by centrifugation for 10 minutes at 1500×g. The final pellet was resuspended in a small volume of dilution buffer (50 mmol/L Tris-HCl pH 7.4, 5 mmol/L MgCl2, 1x Complete Protease Inhibitor) and homogenized with a Dounce homogenizer. These plasma membrane preparations were stored until usage at –80°C.\nas §1, §2\n(§4) The binding of a constant concentration of [^125I]insulin to plasma membranes from CHO cells overexpressing either IR-A or IR-B was measured in presence of increasing concentrations of unlabeled competing ligand after incubation at room temperature for 12 h. All data has been corrected for non-specific binding and are expressed as percentage of [^125I]insulin in absence of competing ligand. To analyze the insulin-stimulated activation and subsequent autophosphorylation of the insulin receptor CHO cells overexpressing the human IR-A (C) or IR-B (D) were stimulated for 15 min at 37°C with increasing concentrations of peptides, then the cells were fixed with 3.7% PFA and the amount of phosphotyrosines was analyzed via In-Cell Western. The data represent mean values ± SEM of at least 3 individual experiments measured in quadruplicate."}, "[4]": {"system": "human IR-A", "assay": "IR-A autophosphorylation (In-Cell Western)", "assay_type": "cell-based", "conditions": "CHO cells overexpressing IR-A, 15 min at 37°C, In-Cell Western; means ± SEM, at least three times; read-out: IR-A auto-phosphorylation EC50", "from_the_text": "(§5) CHO cells expressing either the IR-A or the IR-B isoform were used for IR autophosphorylation assays using In-Cell Western. For the analysis of IGF1R autophosphorylation the receptor was overexpressed in a mouse embryo fibroblast 3T3 Tet off cell line (BD Bioscience, Heidelberg, Germany) that was stably transfected with IGF1R tetracycline-regulatable expression plasmid resulting in the expression of ∼2.6×10^5 IGF1R per cell (as determined by FACS analysis, unpublished data). In order to determine the receptor tyrosine phosphorylation level, cells were seeded into 96-well plates and grown for 48 h. Cells were serum starved with serum-free medium αMEM (PAN Biotech GmbH, Aidenbach, Germany) for 3–4 h. […] After incubation the medium was discarded and the cells were fixed in 3.75% freshly prepared para-formaldehyde for 20 min. Cells were permeabilized with 0.1% Triton-X-100 in PBS for 20 min. Blocking was performed with Odyssey blocking buffer (LI-COR, Bad Homburg, Germany) overnight at 4°C. Anti-pTyr 4G10 (Millipore, Schwalbach, Germany) was incubated for 2 h at room temperature. After incubation of the primary antibody, cells were washed with PBS+0.1% Tween20. The secondary anti-mouse-IgG-800-CW antibody (Rockland, Gilbertsville, PA, USA) was incubated for 1 h. Results were normalized by the quantification of DNA with TO-PRO3 dye (Invitrogen, Karlsruhe, Germany). Data were obtained as relative units (RU) and are presented as fold over basal.\nas §2, §4\n(§6) Insulin receptor autophosphorylation was studied using CHO cells overexpressing either IR-A or IR-B. For detection an immunocytochemical microplate assay (In-Cell Western) based on two-colour fluorescence was applied."}, "[5]": {"system": "human IR-B", "assay": "IR-B autophosphorylation (In-Cell Western)", "assay_type": "cell-based", "conditions": "CHO cells overexpressing IR-B, 15 min at 37°C, In-Cell Western; means ± SEM, at least three times; read-out: IR-B auto-phosphorylation EC50", "from_the_text": "as §5, §2, §4, §6"}, "[6]": {"system": "human IR-B", "assay": "Competitive receptor binding (SPA), IR-B", "description": "as §3, §1, §2, §4"}}}
{"substance": "insulin detemir", "values": [{"measurement": "mitogenic potency", "setting": "[1]", "result": "increased mitogenic potency"}]}
{"substance": "IGF-2: IGF-2 obtained from R&D Systems and Cell Sciences", "values": [{"measurement": "IC50", "setting": "[2]", "result": "6.68 ± 2.24", "unit": "nM"}, {"measurement": "higher affinity for IR-A than IR-B", "setting": "[3]; IR-A relative to IR-B", "result": 7.5, "unit": "fold"}, {"measurement": "IR-A binding relative to IGF-1 and human insulin", "setting": "[3]; IR-A, in words", "result": "higher affinity than IGF-1 but with lower affinity than human insulin"}, {"measurement": "IC50", "setting": "[3]; SPA, WGA PVT PEI beads, 2 µg membranes from CHO cells overexpressing IR-A, 100 pmol/L A14[^125I]-insulin, pH 7.8, 12 h, 23°C, means ± SEM, at least three times, read-out: IR-A affinity IC50", "result": "6.2 ± 0.34", "unit": "nM"}, {"measurement": "EC50", "setting": "[4]", "result": "85.4 ± 5.5", "unit": "nM"}, {"measurement": "EC50", "setting": "[5]", "result": "384 ± 68.4", "unit": "nM"}, {"measurement": "IR-B binding relative to IGF-1 and human insulin", "setting": "[6]; IR-B, in words", "result": "higher affinity than IGF-1 but with lower affinity than human insulin"}, {"measurement": "IC50", "setting": "[6]; SPA, WGA PVT PEI beads, 2 µg membranes from CHO cells overexpressing IR-B, 100 pmol/L A14[^125I]-insulin, pH 7.8, 12 h, 23°C, means ± SEM, at least three times, read-out: IR-B affinity IC50", "result": "46.6 ± 7.8", "unit": "nM"}]}
